Assay results reported in patent publication US20240115569A1, “METHODS FOR BLOCKING HER2 SIGNALING FOR TREATING PULMONARY FIBROSIS” (CEDARS-SINAI MEDICAL CENTER, priority 2021, published 2024).

Experiments:
[1] = tested on: FOXF1; assay: Western blot of FOXF1 in IPF lung fibroblasts; type: cell-based, human; conditions: increasing concentration
[2] = tested on: NSG mice injected with SEMA7A high IPF fibroblasts; assay: Humanized SCID mouse model of IPF; type: in vivo; conditions: assessed on day 63
Method: Humanized SCID mouse model of IPF was generated as previously reported (Trujillo et al., 2010). Female NOD-scid-IL2Rγc−/− (NSG) mice (6 to 8 weeks old) were purchased from the Jackson Laboratory. The NSG mice received single-cell preparations of SEMA7A high and negative IPF lung fibroblasts (0.5×10^6 cells/mouse) via tail vein injection. […] For the anti-ERBB2 antibody studies, mice were injected with IgG1 (InVivoPlus human IgG1 isotype control, Bio X Cell) or anti-HER2 (Pertuzumab, kindly provided by Genentech) twice per week, 100 μg/mouse from day 35 to 63. Lung fibrosis was assessed on day 63 after fibroblast transfer. The left lobe was used for histology and right lobes were used for hydroxyproline assay after right ventricle perfusion to clear the blood in lungs.

[3] = tested on: human lung fibroblasts; assay: Fibroblast migration assay (BioCoat control insert); type: cell-based; conditions: 24 hours, PDGF-BB chemoattractant
Method: (§1) Fibroblast migration and invasion assays were performed as previously described (Geng et al., 2019; L1 et al., 2011). In brief, fibroblasts were loaded into the top chamber of a Corning BioCoat Control cell culture insert containing a polycarbonate membrane with 8.0 µm pores (for migration) or a BioCoat Matrigel Invasion Chamber (BD Sciences; for invasion). All other settings were the same for the cell migration assay as for the cell invasion assay.
(§2) PDGF-BB (10 ng/ml, Peprotech) was used as a chemoattractant in the bottom chamber. After 24 hours culture at 37° C. with 5% CO2, invasive cells that had passed through the matrigel layer and clung to the bottom of the insert membrane were determined as invasive fibroblasts. Cells remaining in the upper chamber were defined as non-invasive fibroblasts. For quantification of the migration and invasion indices, the membrane filters containing cells were fixed and stained with the Protocol Hema 3 stain set (Thermo Fisher Scientific) and counted in 5 randomly chosen fields per filter from triplicate filters per sample at ×40 magnification. […] The cell migration or the cell invasion index was calculated as the number of cells attached to the bottom of control or Matrigel-coated membranes after 24 hours, normalized to respective control lung fibroblasts.

[4] = tested on: SEMA7A, F3, and ITGA6; assay: Flow cytometry of cell surface markers of invasive fibroblasts; type: cell-based, human; conditions: IPF lung fibroblasts after Lapatinib treatment
Method: Briefly, cells were resuspended in Hank's balanced saline solution supplemented with 2% FBS, 10 mM […] , 0.1 mM EDTA, Antibiotic-Antimycotic. […] 4',6-diamidino-2-phenylindole (DA-PI) was used to discriminate dead cells.

[5] = tested on: C57BL/6J mice; assay: Bleomycin-induced lung fibrosis; type: in vivo, mouse; conditions: 1.25 U/kg bleomycin intratracheal; gavaged every day; 21 days; vs vehicle; trichrome and hydroxyproline
Text: Control animals received saline alone. The tracheostomy site was sutured, and the animals were allowed to recover. […] Mice were euthanized 21 days after bleomycin treatment, and lung tissues were collected for experiments.

[6] = tested on: IPF lung fibroblasts; assay: qRT-PCR of genes specific to invasive or non-invasive fibroblasts; type: cell-based, human; conditions: IPF lung fibroblasts after Lapatinib treatment
Method: Small interfering RNA (siRNA) knockdown assays were performed using Lipofectamin RNAiMAX Transfection Reagent following the manufacturer's protocol (Thermo Fisher Scientific). Commercial si-RNA used were listed: si-FOXF1 (Santa Cruz Biotechnology, sc-60655), si-CREBRF (Santa Cruz Biotechnology, sc-91839), si-TSC22D1 (Thermo Fisher Scientific, 16708), si-MXI1 (Santa Cruz Biotechnology, sc-35835), si-KLF9 (Santa Cruz Biotechnology, sc-37716), si-NFE2L2 (Santa Cruz Biotechnology, sc-37030), si-HMGA2 (Santa Cruz Biotechnology, sc-37994) si-DPF3 (Santa Cruz Biotechnology, sc-92150) and si-LIN00152 (Dharmacon, SMARTpool: Lincode CYTOR siRNA). Si-FENDRR were synthesized by Integrated DNA Technologies (IDT) (Table 1). RNA was isolated using RNeasy Mini kit (QIAGEN) following the manufacturer's protocol. […] Reverse Transcriptase (Progema) was used for cDNA synthesis. Gene expression was measured relative to the endogenous reference gene GAPDH using the comparative ACT method. The primer sequences used were listed (Table 1).

[7] = tested on: human lung fibroblasts; assay: Fibroblast invasion assay (BioCoat Matrigel Invasion Chamber); type: cell-based; conditions: 24 hours, PDGF-BB chemoattractant
Method: as §1, §2

[8] = tested on: fibroblasts; assay: Calcein AM cell viability assay; type: cell-based, human; conditions: Lapatinib treated cells for 24 hours
Method: Cell growth rate of si-CTL and si-FENDRR fibroblasts were measured by IncuCyte ZOOM Live Cell Analysis System (Essen BioScience). The viability of lapatinib-treated fibroblasts or control fibroblasts was examined by Calcein AM Cell Viability Assay Kit (Trevigen).

[9] = tested on: SEMA7A; assay: Western blot of SEMA7A in IPF lung fibroblasts; type: cell-based, human; conditions: increasing concentration
[10] = tested on: IPF; conditions: IPF patients; cited from earlier work
[11] = different doses of Lapatinib or DMSO

For `CS(=O)(=O)CCNCc1ccc(-c2ccc3ncnc(Nc4ccc(OCc5cccc(F)c5)c(Cl)c4)c3c2)o1` [Lapatinib], the “total protein levels of FOXF1” value [1] was “increased”, the lung fibrosis ([2]; 50 mg/kg every other day from day 35 to day 63, vs vehicle, trichrome and hydroxyproline) was “significantly decreased lung fibrosis” and the fibroblast migration [3, 11] was “inhibited fibroblast migration and invasion in a dose dependent manner”. The “cell surface expression of SEMA7A, F3, and ITGA6” value [4] was “decreased protein levels”, the bleomycin-induced lung fibrosis [5] was “blunted bleomycin-induced lung fibrosis” and the “RNA levels of other representative genes specific to invasive or non-invasive fibroblasts” value [6] was “reversed to a non-invasive state”. For the same compound, the fibroblast invasion [7, 11] was “inhibited fibroblast migration and invasion in a dose dependent manner”, the fibroblast viability [8] was “no effect on fibroblast viability” and the “total protein levels of SEMA7A” value [9] was “decreased”.

In the case of `COC(=O)c1ccc2c(c1)NC(=O)/C2=C(\Nc1ccc(N(C)C(=O)CN2CCN(C)CC2)cc1)c1ccccc1` [nintedanib], the “lung function / fibrosis” value [10] is given as “neither of these agents improves lung function or reduces fibrosis” and the “rate of decline in the forced vital capacity” value [10] is given as “reduce the rate of decline in the forced vital capacity”.

For `Cc1ccc(=O)n(-c2ccccc2)c1` [pirfenidone], the “lung function / fibrosis” value [10] is listed as “neither of these agents improves lung function or reduces fibrosis” and the “rate of decline in the forced vital capacity” value [10] is listed as “reduce the rate of decline in the forced vital capacity”.

For “Pertuzumab: humanized monoclonal antibody that binds to the extracellular domain II of HER2”, the lung fibrosis ([2]; 100 μg/mouse twice per week from day 35 to 63, vs IgG1) was “significantly decreased lung fibrosis”, the fibroblast migration ([3]; Pertuzumab or IgG1) was “significantly reduced fibroblast migration and invasion” and the fibroblast invasion ([7]; Pertuzumab or IgG1) was “significantly reduced fibroblast migration and invasion”.
